# Measured values: US20170107254A1, “Modified Antimicrobial Peptides” (priority 2014, published 2017)
# Read-outs that look alike come from different tables or passages of the source. No end group written: not given here.
# Columns and labels:
# [1] = test system: A. fumigatus (AM2002/066 and NPCF2939); assay: Antifungal activity (CLSI M38-A2 micro-broth dilution) and MFC; format: cell-based; conditions: for A. fumigatus MIC100 / MIC: Table 5, average of two strains, 48 h at 30° C.; for MIC: read-out: A. fumigatus MIC100
# Procedure: (§1) The fungal strains A. fumigatus (AM2002/066 and NPCF2939), A. flavus (01-1554 and NPCF7117) and A. niger (01-1494 and NCPF2022) were obtained from the National Collection of Pathogenic Fungi (NPCF) or American Type Culture Collection (ATCC). Fungal strains were grown on SAB slopes for 72 h at 30° C. before experimental use. C. albicans strain SC5314 was purchased from ATCC and grown overnight on SAB slopes at 30° C. before experimental use.
# (§2) The antifungal activity of peptides was examined using the conditions of the Clinical Laboratory Standards Institute document M38-A2. Peptide antifungal activity was assessed by micro-broth dilutions with a serial two-fold dilution of test compound prepared in a 96 well plate from 0 to maximum concentration to be tested (here 2× concentration required, 250 μg/ml). Fungal suspensions were prepared by flooding slopes with PBS and filtering through gauze to collect spores. The suspension was then adjusted to a density of 2×10^4 colony-forming units/ml in 2× culture medium (RPMI 1640, 0.165 M MOPS, pH 7.4 with L-glutamine, without NaHCO3 medium) and an equal volume was added to the different peptide concentrations in the 96 well plate. Plates where incubated at 30° C. for 48 h before growth inhibition was determined by measuring absorbance at 530 nm (Biotek Powerwave). Antifungal activity was defined by the minimum inhibitory concentration (MIC), the concentration at which no growth was observed.
# (§3) For examining the minimum fungicidal concentration (MFC) 10 μl of fungal and peptide suspension was transferred from every well to the corresponding well in a sterile 96-well plate containing fresh culture medium (RPMI-1640, 0.165 M MOPS, pH 7.4 with L-glutamine, without NaHCO3 medium). Aspergillus was then incubated for a further 48 h after which absorbance was measured at 530 nm. MFC was defined as the concentration at which no growth was observed.
# [2] = test system: A. flavus (01-1554 and NPCF7117); assay: as above; format: cell-based; conditions: Table 5, average of two strains, 48 h at 30° C.; for MIC: Aspergillus flavus, read-out: A. flavus MIC100
# Procedure: as §1, §2, §3
# [3] = test system: A. niger (01-1494 and NCPF2022); assay: as above; format: cell-based; conditions: Table 5, average of two strains, 48 h at 30° C.; for MIC: Aspergillus niger, NCPF2022, read-out: A. niger MIC100
# Procedure: as §1, §2, §3
# A549 cells = conditions: lipid alone at 200 μg/ml
# Procedure: The cell lines A549 (Human Lung Adenocarcinoma Epithelial Cell Line) and HepG2 (Human Hepatocellular Carcinoma Cell Line) were purchased from ATCC. A549 cells were maintained in F-12K medium (Gibco) containing 10% foetal bovine serum (Life Technologies) and 1% penicillin/streptomycin (Life Technologies) and HepG2 cells were maintained in Dulbecco's modified eagles medium (Gibco) containing 10% foetal bovine serum (Life Technologies), penicillin/streptomycin (Life Technologies) and 1% 0.01 mg/ml human transferrin (Sigma). Both were incubated at 37° C. with 5% CO2 until cells reached >80% confluence before splitting or experimental use.
# Before exposure to peptides, the plate was incubated at 37° C. with 5% CO2 overnight to allow cells adhere. […] Medium was removed from the plate containing cells and peptide dilutions were transferred to cells and incubated for a further 3 h at 37° C. with 5% CO2. Cytotoxicity was determined by LIVE/DEAD® Viability/Cytotoxicity kit (Invitrogen Life Technologies), a working solution of 2 μM calcein AM and 4 μM EthD-1 and in conjunction Alamar Blue at a final concentration of 10% was added to the wells. Cells without peptides were the negative control and 1% DMSO was the positive control. Cells were incubated for 3 h again at 37° C. with 5% CO2.
# [4] = test system: human red blood cells (hRBC); assay: Haemolysis of human red blood cells; conditions: lipid alone at 200 μg/ml
# Procedure: Peptides were tested for their haemolytic activity against human red blood cells (hRBC). Fresh hRBCs collected in BD Vacutainer® tubes with EDTA were rinsed 3 times with PBS (pH 7.4) by centrifugation for 10 min at 800 g and resuspended, 1 in 10 diluted with PBS. […] Release of haemoglobin was then calculated by transferring supernatant to a flat bottomed 96-well plate and measuring absorbance at 578 nm. hRBCs with no peptides added and H2O provided the controls.
# C. albicans SC5314 [5] = format: cell-based; conditions: RPMI-1640, 48 h data
# Procedure: The purity of the peptide was taken into account during the preparation to ensure preparation of the correct concentration. Peptides solutions were stored at −20° C. until required.
# The antifungal activity of the peptides was based on that of the Clinical Laboratory Standards Institute document M27-A3. A serial two-fold dilution of peptide was prepared across a 96-well microtitre plate with concentration ranging from 2 mg/ml to […]; upon addition of the cells these concentrations shall be halved, with additional wells lacking peptide as a 0 mg/ml control. An addition control lacking culture was also prepared.
# To prepare the fungal inoculum, an overnight culture of C. albicans SC5314 was grown at 30° C. on Sabouraud dextrose agar. Cells were washed from the surface of the agar and diluted to the equivalent of the 0.5 MacFarland standard. A further 1:50 dilution of the cells into 2×RPMI-1640 was carried out, and an equal volume was added to the different peptide concentrations in the microtitre plate. To measure the metabolic activity of the cells, 10 μl of a 0.25% solution of resazurin was added to each well. Plates were incubated in the dark at 30° C. for 48 h with growth inhibition determined by measuring absorbance at 530 nm/590 nm at 0 h, 24 h and 48 h on a BioTek PoweWave. Antifungal activity was defined by the minimum inhibitory concentration (MIC), the concentration at which no growth was observed.
# C. albicans SC5314 [6] = format: cell-based; conditions: RPMI-1640 and 25% plasma, 24 h data
# Procedure: A peptide “master” plate was prepared by the addition of 200 μl of the 20 mg/ml stock to column 11 on a microtitre plate. One hundred microliters of sterile water was added to the remaining wells. Serial two-fold dilutions of the peptides were carried out across the plate from right to left. From the “master” plate, 25 μl of peptides were added to corresponding wells on three “working” plates. To each well on the “working” plate, 25 μl human plasma was added, resulting in the halving of both the concentration of the peptide in the working plate and human plasma. Column 12 contained the controls.
# An overnight culture of C. albicans SC5314 was grown at 30° C. on Sabouraud dextrose agar and the cells were washed from the surface of the agar and diluted to the equivalent of the 0.5 MacFarland standard. A further 1:50 dilution of the cells into 2×RPMI-1640 was carried out, and 50 μl of the cell suspension was added to each well of the plate. […] Plates were incubated at 30° C. for 48 h with growth inhibition determined by measuring absorbance at 530 nm at 0 h, 24 h and 48 h on a BioTek PoweWave. Antifungal activity was defined by the minimum inhibitory concentration (MIC), the concentration at which no growth was observed.
# C. albicans SC5314 [7] = format: cell-based
# Procedure: 1×RPMI-1640 Buffered with Citrate Phosphate Buffer
# Citrate phosphate buffer was prepared by mixing 0.1 M citric acid and 0.2 M dibasic sodium phosphate dodecahydrate in the proportions indicated in the Table 2 and the volume adjusted to 90 ml with dH2O.
# pH buffered medium was prepared by dissolving 1.04 g RPMI-1640 premix powder in 10 ml citrate phosphate buffer. The volume was then adjusted to 40 ml with dH2O and the pH adjusted by addition of the acid or base. The volume was adjusted to 50 ml with dH2O. The medium was then filter sterilized by vacuum filtration through a 0.2 μm filter and stored at 4° C. and kept for up to 2 weeks.
# The pH of RPMI-1640 was altered, using citrate phosphate buffer, to reflect the more acidic pH environment in the oral cavity. NP319 and NP377 were active against C. albicans SC5314 from pH 5.5-7.0 (Table 2). For all AMPs tested the optimum pH for activity was pH 5.5. NP377 maintained activity at 2 μg/ml from pH 5.5-7 with reduced activity at pH 5.
# C. albicans SC5314 [8] = test system: C. albicans SC5314
# Procedure: (B) Efficacy of AMPs of same length was evaluated by MIC after 24 incubation at 37° C. Data is expressed as percentage of the positive growth controls. Data is the mean±standard error of the mean (n=3).
# The efficacy of AMPs was determined versus C. albicans SC5314 before evaluating the effect of pH on activity.
# [9] = neutral pH, no saliva, 24 h incubation at 37° C.
compound,measurement,setting,value
"CC(=O)O [Acetic (C2), Acetic]",inhibition at 200 µg/mL,"[1]; Aspergillus fumigatus, lipid alone at 200 μg/ml, 48 h, read-out: % Growth Inhibition of A. fumigatus at 48 h",5%
C[C@@H]1[C@H](O)[C@@H](C)/C=C/C=C/C=C/C=C/C=C/C=C/C=C/[C@H](O[C@@H]2O[C@H](C)[C@@H](O)[C@H](N)[C@@H]2O)C[C@@H]2O[C@](O)(C[C@@H](O)C[C@@H](O)[C@H](O)CC[C@@H](O)C[C@@H](O)CC(=O)O[C@H]1C)C[C@H](O)[C@H]2C(=O)O [Amphotericin B],A. fumigatus MIC100,[1],1 µg/mL
same,A. flavus MIC100,[2],1.5 µg/mL
same,A. niger MIC100,[3],<1 µg/mL
"CCCC(=O)O [Butanoic (C4), Butanoic]",% A549 Cell Death at 3 h,A549 cells,0%
same,% Haemolytic Activity at 3 h,[4],30%
same,% Growth Inhibition of A. fumigatus at 48 h,"[1]; lipid alone at 200 μg/ml, 48 h",35%
CC[C@H](C)C[C@H](C)CCCCCCCCC(=O)N[C@H]1C[C@@H](O)[C@@H](NCCN)NC(=O)[C@@H]2[C@@H](O)CCN2C(=O)[C@H]([C@H](O)CCN)NC(=O)[C@H]([C@H](O)[C@@H](O)c2ccc(O)cc2)NC(=O)[C@@H]2C[C@@H](O)CN2C(=O)[C@H]([C@@H](C)O)NC1=O [Caspofungin],MIC,[1]; Aspergillus fumigatus,64 µg/mL
same,MIC,[2],128 µg/mL
same,MIC,[3],16 µg/mL
"CCCCCCCCCC(=O)O [Decanoic (C10), Decanoic]",% A549 Cell Death at 3 h,A549 cells,25%
same,% Haemolytic Activity at 3 h,[4],10%
same,% Growth Inhibition of A. fumigatus at 48 h,"[1]; lipid alone at 200 μg/ml, 48 h",20%
"CCCCCCCCCCCC(=O)O [Dodecanoic (C12), Dodecanoic]",% A549 Cell Death at 3 h,A549 cells,20%
same,% Haemolytic Activity at 3 h,[4],20%
same,% Growth Inhibition of A. fumigatus at 48 h,"[1]; lipid alone at 200 μg/ml, 48 h",45%
OC(Cn1cncn1)(Cn1cncn1)c1ccc(F)cc1F [Fluconazole],MIC,[1]; Aspergillus fumigatus,64 µg/mL
same,MIC,[2],64 µg/mL
same,MIC,[3],64 µg/mL
"CCCCCC(=O)O [Hexanoic (C6), Hexanoic]",% A549 Cell Death at 3 h,A549 cells,0%
same,% Haemolytic Activity at 3 h,[4],40%
same,% Growth Inhibition of A. fumigatus at 48 h,"[1]; lipid alone at 200 μg/ml, 48 h",50%
CCC(C)n1ncn(-c2ccc(N3CCN(c4ccc(OCC5COC(Cn6cncn6)(c6ccc(Cl)cc6Cl)O5)cc4)CC3)cc2)c1=O (stereo not shown) [Itraconcazole],A. fumigatus MIC100,[1],<1 µg/mL
same,A. flavus MIC100,[2],1 µg/mL
same,A. niger MIC100,[3],<1 µg/mL
N=C(N)NCCC[C@H](NC(=O)[C@H](CCCNC(=N)N)NC(=O)[C@H](CCCNC(=N)N)NC(=O)[C@H](CCCNC(=N)N)NC(=O)[C@H](CCCNC(=N)N)NC(=O)[C@H](CCCNC(=N)N)NC(=O)[C@H](CCCNC(=N)N)NC(=O)[C@H](CCCNC(=N)N)NC(=O)[C@H](CCCNC(=N)N)NC(=O)[C@H](CCCNC(=N)N)NC(=O)[C@H](CCCNC(=N)N)NC(=O)[C@H](CCCNC(=N)N)NC(=O)[C@H](CCCNC(=N)N)NC(=O)[C@@H](N)CCCNC(=N)N)C(=O)O [Novamycin],MIC50,C. albicans SC5314 [5],<2 µg/mL
same,MIC80,C. albicans SC5314 [5],2 µg/mL
same,MIC100,C. albicans SC5314 [5],4 µg/mL
same,MIC50,C. albicans SC5314 [6],78.1 µg/mL
same,MIC80,C. albicans SC5314 [6],156.25 to 312.5 µg/mL
same,MIC100,C. albicans SC5314 [6],312.5 µg/mL
C[C@@H]1[C@H](O)[C@@H](C)/C=C/C=C/CC/C=C/C=C/C=C/C=C/C(O[C@H]2O[C@H](C)[C@@H](O)[C@H](N)[C@@H]2O)CC2O[C@](O)(CC(O)C(O)CCC(O)CC(O)CC(O)CC(=O)O[C@H]1C)CC(O)C2C(=O)O (stereo partly shown) [Nystatin],MIC50,C. albicans SC5314 [7]; pH 4.5,2 µg/mL
same,MIC100,C. albicans SC5314 [7]; pH 4.5,2 µg/mL
same,MIC50,C. albicans SC5314 [7]; pH 5,1 µg/mL
same,MIC100,C. albicans SC5314 [7]; pH 5,1 µg/mL
same,MIC50,C. albicans SC5314 [7]; pH 5.5,1 µg/mL
same,MIC100,C. albicans SC5314 [7]; pH 5.5,1 µg/mL
same,MIC50,C. albicans SC5314 [7]; pH 6,1 µg/mL
same,MIC100,C. albicans SC5314 [7]; pH 6,1 µg/mL
same,MIC50,C. albicans SC5314 [7]; pH 6.5,1 µg/mL
same,MIC100,C. albicans SC5314 [7]; pH 6.5,1 µg/mL
same,MIC50,C. albicans SC5314 [7]; pH 7,1 µg/mL
same,MIC100,C. albicans SC5314 [7]; pH 7,1 µg/mL
"CCCCCCCC(=O)O [Octanoic (C8), Octanoic]",% A549 Cell Death at 3 h,A549 cells,5%
same,% Growth Inhibition of A. fumigatus at 48 h,"[1]; lipid alone at 200 μg/ml, 48 h",60%
"CCCCCCCCCCCCCCCC(=O)O [Palmitic (C16), Palmitic]",% A549 Cell Death at 3 h,A549 cells,10%
same,% Growth Inhibition of A. fumigatus at 48 h,"[1]; lipid alone at 200 μg/ml, 48 h",0%
"CCCCCCCCCCCCCC(=O)O [Tetradecanoic (C14), Tetradecanoic]",% A549 Cell Death at 3 h,A549 cells,0%
same,% Haemolytic Activity at 3 h,[4],20%
same,% Growth Inhibition of A. fumigatus at 48 h,"[1]; lipid alone at 200 μg/ml, 48 h",15%
Palm-dRdRdRdRdRdRdRdRdRdRdRdR-CONH [NP375],MIC100,C. albicans SC5314 [8]; [9],16 µg/mL
"Poly-L-Arg, HCl salt [NP121]",MIC80,C. albicans SC5314 [8]; [9],64 µg/mL
RRRFRFRFRFRRR [NP466],MIC90,"C. albicans SC5314 [8]; SC5314, 24 h",32 µg/mL
same,MIC100,C. albicans SC5314 [8]; [9],did not achieve a MIC100
dHdHdRdRdRdRdRdRdRdRdRdRdRdRdR-CONH [NP376],MIC100,C. albicans SC5314 [8]; [9],2 µg/mL
